The text below walks through data of patent US20220323441A1, “THERAPEUTIC FOR GOUT OR HYPERURICEMIA” (Nippon Chemiphar Co., Ltd., priority 2019, published 2022).

Like-named read-outs stand apart in the source and are kept apart here.

A short description of series [1]: Particle size distribution of amorphous Compound 14 (laser diffraction). As to conditions: amorphous Compound 14, spray dried; dispersed in 0.2% Aerosol OT aqueous solution. The format is physicochemical. The protocol:
A volume average particle size (D50) of the obtained amorphous Compound 14 was measured with a Shimadzu laser diffraction type particle size distribution measuring device SALD-2200 using a dispersion obtained by adding about 2 mg of a sample to a 0.2% Aerosol OT aqueous solution and irradiating the solution with ultrasonic waves for 30 seconds for dispersion. Shimadzu WingSALD-2200 version 1.02 software was used for data collection and analysis. […] The volume average particle size (D50) of amorphous Compound 14 obtained from the particle size distribution was 2.949 μm.

For series [2], the system named is serum uric acid level. Briefly: Example 1, action of lowering serum uric acid level in healthy adult males. The format is in vivo. The source says:
The effect of gradually lowering the blood uric acid level which is achieved by administering the pharmaceutical composition provided by the present invention may be confirmed, for example, when a maximum rate of decrease in a blood uric acid level on the first day of the administration ([(pre-administration uric acid level−minimum post-administration uric acid level on first day of administration)/pre-administration uric acid level]×100) is about 35% or less (for example, 1 to 35% decrease, 10 to 30% decrease, 10 to 25% decrease, 10 to 20% decrease, or 15 to 25% decrease); and/or the maximum rate of decrease in a blood uric acid level on the seventh day of the administration ([(pre-administration uric acid level−minimum post-administration uric acid level on the seventh day of administration)/pre-administration uric acid level]×100) is about 55% or less (for example, 1 to 55% decrease, 10 to 50% decrease, 15 to 45% decrease, 20 to 45% decrease, 20 to 40% decrease, or 20 to 35% decrease), the maximum rates of decrease being determined by continuously administering the pharmaceutical composition provided by the present invention to a healthy adult (for example, a male) for 7 days and measuring the blood uric acid levels before and after the administration.
The blood uric acid level (blood uric acid concentration) may be measured by a known uricase-peroxidase method.
80 mg of Compound 14 was repeatedly administered to 6 healthy adult males once daily for 7 days using solid dispersion capsules of Formulation Example 1, and the action of lowering a serum uric acid level was examined. For comparative reference, the results are shown in FIG. 9 together with the result of a case described in Non Patent Literature 3 in which febuxostat (40 mg) was used.

Series [3] deals with serum uric acid level. As to conditions: febuxostat 40 mg; about 15 hours after the administration; cited from earlier work.

On to `N#Cc1cc(-c2nc3c(O)ncnc3s2)ccc1Oc1ccccc1` [Compound 14, 2-(3-Cyano-4-phenoxyphenyl)-7-hydroxythiazolo[5,4-d]pyrimidine], for which the “volume average particle size (D50)” value in series [1] is 2.949 μm. Moreover, the “course of serum uric acid level throughout the administration period” value was “gradually decreased over time” with serum uric acid level [2] (20 mg once daily for 7 days, solid dispersion capsules of Formulation Example 1); “gradually decreased over time” with serum uric acid level [2] (40 mg once daily for 7 days, capsules containing micronized Compound 14); “gradually decreased over time” with serum uric acid level [2] (80 mg once daily for 7 days, solid dispersion capsules of Formulation Example 1). Besides, in the series with serum uric acid level [2] (80 mg once daily for 7 days, solid dispersion capsules of Formulation Example 1, about 8 hours after the administration), the “maximum rate of decrease in a blood uric acid level on the seventh day” value was “about 30%”. Besides, the “maximum rate of decrease in a blood uric acid level on the first day of the administration” value in the series with serum uric acid level [2] (80 mg once daily, solid dispersion capsules of Formulation Example 1, 6 healthy adult males, at 12 hours after the administration) was “about 17%”.
Take `Cc1nc(-c2ccc(OCC(C)C)c(C#N)c2)sc1C(=O)O` [febuxostat]: the “maximum rate of decrease in a blood uric acid level on the first day of the administration” value with serum uric acid level [3] was “about 35%”.
